Experimental data taken from patent publication US20220184034A1, “METHODS FOR TREATING CUTANEOUS METASTATIC CANCERS” (Adgero Biopharmaceuticals Holdings, Inc., priority 2020, published 2022).

Test system: cutaneous lesions arising from either basal cell cancer, squamous cell cancer or CMBC
Experiment: Phase 1/2 dose escalation study of SnET2 PDT: lesion response
Assay type: in vivo, patients
Experimental: Two Phase 1/2 studies established the clinical dosimetry. The first study was a dose escalation study that enrolled a total of 22 patients with cutaneous lesions arising from either basal cell cancer, squamous cell cancer or CMBC. A total of 213 lesions were treated using photosensitizer SnET2) doses ranging from 0.1-1.2 mg/kg, light doses of 100, 150 or 200 J/cm^2 and treatment timepoints of 24, 48, or 72 hours post-infusion. Two key measures were utilized in these studies, lesion reaction and lesion response. Lesion reaction was an acute characterization of the treatment effect that was performed out to 1 week post-treatment according to the following scale: • Grade 0=No visual erythema or edema • Grade 1=Faint erythema and/or slight edema • Grade 2=Moderate erythema and edema • Grade 3=Severe discoloration, edema, sloughing or eschar
Beginning at one month post-treatment and then at 3 and 6 months post-treatment, a lesion response assessment was conducted according to the following scoring system: • Complete Response (complete reduction of the lesion) • Partial Response (more than 50% reduction of the lesion) • Failure (less than 50% reduction of the lesion).
Therefore, in the analysis that follows, results from all three treatment timepoints have been combined.
A similar result was observed when individual patient responses were compared. In these studies, individual patients received a single drug dose and each patient then had individual lesions treated at various light doses (100, 150, or 200 J/cm^2) and treatment timepoints (24, 48, 72 hours post-infusion). In Table 3, results for each patient treated at 0.8 mg/kg or higher are provided. In each drug dose case, individual lesions were treated at one of the three light doses and one of the three treatment timepoints, all of which have been combined for each individual patient result in the table.

[1] = 0.1 mg/kg, 100 J/cm^2, 24/48/72 h combined
[2] = 0.1 mg/kg, 150 J/cm^2, 24/48/72 h combined
[3] = 0.1 mg/kg, 200 J/cm^2, 24/48/72 h combined
[4] = 0.2 mg/kg, 100 J/cm^2, 24/48/72 h combined
[5] = 0.2 mg/kg, 150 J/cm^2, 24/48/72 h combined
[6] = 0.2 mg/kg, 200 J/cm^2, 24/48/72 h combined
[7] = 0.4 mg/kg, 100 J/cm^2, 24/48/72 h combined
[8] = 0.4 mg/kg, 150 J/cm^2, 24/48/72 h combined
[9] = 0.4 mg/kg, 200 J/cm^2, 24/48/72 h combined
[10] = 0.8 mg/kg, 100 J/cm^2, 24/48/72 h combined
[11] = 0.8 mg/kg, 100 J/cm^2, lesions scored for reaction at Week 1
[12] = 0.8 mg/kg, 150 J/cm^2, 24/48/72 h combined
[13] = 0.8 mg/kg, 150 J/cm^2, lesions scored for reaction at Week 1
[14] = 0.8 mg/kg, 200 J/cm^2, 24/48/72 h combined
[15] = 0.8 mg/kg, 200 J/cm^2, lesions scored for reaction at Week 1
[16] = 1.0 mg/kg, 100 J/cm^2, 24/48/72 h combined
[17] = 1.0 mg/kg, 100 J/cm^2, lesions scored for reaction at Week 1
[18] = 1.0 mg/kg, 150 J/cm^2, 24/48/72 h combined
[19] = 1.0 mg/kg, 150 J/cm^2, lesions scored for reaction at Week 1
[20] = 1.0 mg/kg, 200 J/cm^2, 24/48/72 h combined
[21] = 1.0 mg/kg, 200 J/cm^2, lesions scored for reaction at Week 1
[22] = 1.2 mg/kg, 100 J/cm^2, 24/48/72 h combined
[23] = 1.2 mg/kg, 100 J/cm^2, lesions scored for reaction at Week 1
[24] = 1.2 mg/kg, 150 J/cm^2, 24/48/72 h combined
[25] = 1.2 mg/kg, 150 J/cm^2, lesions scored for reaction at Week 1
[26] = 1.2 mg/kg, 200 J/cm^2, 24/48/72 h combined
[27] = 1.2 mg/kg, 200 J/cm^2, lesions scored for reaction at Week 1
[28] = patient RC004, drug dose 0.8 mg/kg, light doses and timepoints combined
[29] = patient RC005, drug dose 1.2 mg/kg, light doses and timepoints combined
[30] = patient RC006, drug dose 1.2 mg/kg, light doses and timepoints combined
[31] = patient RC007, drug dose 1.2 mg/kg, light doses and timepoints combined
[32] = patient SC001, drug dose 1.2 mg/kg, light doses and timepoints combined
[33] = patient SC002, drug dose 1 mg/kg, light doses and timepoints combined
[34] = patient SC003, drug dose 1 mg/kg, light doses and timepoints combined
[35] = patient SC004, drug dose 1 mg/kg, light doses and timepoints combined
[36] = patient SC005, drug dose 1.2 mg/kg, light doses and timepoints combined
[37] = patient WC007, drug dose 0.8 mg/kg, light doses and timepoints combined
[38] = patient WC008, drug dose 0.8 mg/kg, light doses and timepoints combined
[39] = patient WC009, drug dose 1.2 mg/kg, light doses and timepoints combined
[40] = patient WC010, drug dose 1.2 mg/kg, light doses and timepoints combined

tin ethyl etiopurpurin [SnET2]
Complete Responders [1]: 0 | Partial Responders [1]: 0 | Response Rate (%) [1]: 0% | Total Responders [1]: 0 | Complete Responders [2]: 0 | Partial Responders [2]: 0 | Response Rate (%) [2]: 0% | Total Responders [2]: 0 | Complete Responders [3]: 0 | Partial Responders [3]: 0 | Response Rate (%) [3]: 0% | Total Responders [3]: 0 | Complete Responders [4]: 0 | Partial Responders [4]: 1 | Response Rate (%) [4]: 50% | Total Responders [4]: 1 | Complete Responders [5]: 0 | Partial Responders [5]: 0 | Response Rate (%) [5]: 0% | Total Responders [5]: 0 | Complete Responders [6]: 0 | Partial Responders [6]: 0 | Response Rate (%) [6]: 0% | Total Responders [6]: 0 | Complete Responders [7]: 0 | Partial Responders [7]: 0 | Response Rate (%) [7]: 0% | Total Responders [7]: 0 | Complete Responders [8]: 0 | Partial Responders [8]: 0 | Response Rate (%) [8]: 0% | Total Responders [8]: 0 | Complete Responders [9]: 0 | Partial Responders [9]: 0 | Response Rate (%) [9]: 0% | Total Responders [9]: 0 | lesions with responses (0.8 mg/kg or higher): 95 of 102 | Complete Responders [10]: 9 | Partial Responders [10]: 2 | Response Rate (%) [10]: 78% | Total Responders [10]: 11 | % Responders [11]: 79% | Total Responders [11]: 11 | Complete Responders [12]: 8 | Partial Responders [12]: 5 | Response Rate (%) [12]: 87% | Total Responders [12]: 13 | % Responders [13]: 87% | Total Responders [13]: 13 | Complete Responders [14]: 12 | Partial Responders [14]: 1 | Response Rate (%) [14]: 87% | Total Responders [14]: 13 | % Responders [15]: 87% | Total Responders [15]: 13 | Complete Responders [16]: 3 | Partial Responders [16]: 0 | Response Rate (%) [16]: 100% | Total Responders [16]: 3 | % Responders [17]: 100% | Total Responders [17]: 3 | Complete Responders [18]: 4 | Partial Responders [18]: 1 | Response Rate (%) [18]: 100% | Total Responders [18]: 5 | % Responders [19]: 100% | Total Responders [19]: 5 | Complete Responders [20]: 8 | Partial Responders [20]: 0 | Response Rate (%) [20]: 100% | Total Responders [20]: 8 | % Responders [21]: 100% | Total Responders [21]: 8 | Complete Responders [22]: 5 | Partial Responders [22]: 7 | Response Rate (%) [22]: 100% | Total Responders [22]: 12 | % Responders [23]: 100% | Total Responders [23]: 6 | Complete Responders [24]: 7 | Partial Responders [24]: 9 | Response Rate (%) [24]: 100% | Total Responders [24]: 16 | % Responders [25]: 100% | Total Responders [25]: 9 | Complete Responders [26]: 11 | Partial Responders [26]: 3 | Response Rate (%) [26]: 100% | Total Responders [26]: 14 | % Responders [27]: 100% | Total Responders [27]: 7 | response rate of individual patients (all patients at 0.8 mg/kg or higher, with the exception of one patient dosed at 0.8 mg/kg): 100% | response at the drug dose threshold and greater (at about 0.5 to about 0.8 mg/kg and greater (1.2 mg/kg)): good responses were observed | threshold dose for lesion response (dose escalation 0.1-1.2 mg/kg): 0.8 mg/kg | response below the drug dose threshold (doses below about 0.5 to about 0.8 mg/kg): no response was observed | Lesions Responded (doses less than 0.8 mg/kg): 1 of 111 | influence of light dose and treatment timepoint (light doses 100 to 200 J/cm^2, timepoints 24 to 72 hours post administration): did not indicate significant differences | variation in response with treatment timepoint (light given at 24, 48 or 72 hours after administration): minimal variation in response with treatment timepoint | % Lesions Responded [28]: 74% | Lesions Responded [28]: 20 | % Lesions Responded [29]: 100% | Lesions Responded [29]: 6 | % Lesions Responded [30]: 100% | Lesions Responded [30]: 1 | % Lesions Responded [31]: 100% | Lesions Responded [31]: 3 | % Lesions Responded [32]: 100% | Lesions Responded [32]: 4 | % Lesions Responded [33]: 100% | Lesions Responded [33]: 6 | % Lesions Responded [34]: 100% | Lesions Responded [34]: 6 | % Lesions Responded [35]: 100% | Lesions Responded [35]: 4 | % Lesions Responded [36]: 100% | Lesions Responded [36]: 6 | % Lesions Responded [37]: 100% | Lesions Responded [37]: 9 | % Lesions Responded [38]: 100% | Lesions Responded [38]: 8 | % Lesions Responded [39]: 100% | Lesions Responded [39]: 20 | % Lesions Responded [40]: 100% | Lesions Responded [40]: 2
